According to ChEMBL document CHEMBL3885881, “DrugMatrix”:

Species: Rattus norvegicus
Experiment: DrugMatrix - Regimen: Daily Repeat
Format: toxicity, organism-based, Sprague-Dawley
Parameters: regimen Daily Repeat, gender Male, age 6-8 weeks
Conditions: in vivo, po, route oral GAVAGE, vehicle .5 % CMC; for ABSOLUTE BASOPHIL / ABSOLUTE EOSINOPHIL / ABSOLUTE LYMPHOCYTE / ABSOLUTE MONOCYTE / ABSOLUTE SEGMENTED NEUTROPHIL / BASOPHIL / EOSINOPHIL / ERYTHROCYTE COUNT / HEMATOCRIT / HEMOGLOBIN / LEUKOCYTE COUNT / LYMPHOCYTE / MEAN CORPUSCULAR HEMOGLOBIN / MEAN CORPUSCULAR HEMOGLOBIN CONCENTRATION / MEAN CORPUSCULAR VOLUME / MONOCYTE / NEUTROPHIL / NUCLEATED RED BLOOD CELLS / PLATELET COUNT: tissue Blood; for ALANINE AMINOTRANSFERASE / ALBUMIN / ALKALINE PHOSPHATASE / ASPARTATE AMINOTRANSFERASE / BLOOD UREA NITROGEN / CARBON DIOXIDE / CHLORIDE / CHOLESTEROL / CREATINE PHOSPHOKINASE / CREATININE / GLUCOSE / LACTATE DEHYDROGENASE / LIPASE / PHOSPHORUS / POTASSIUM / SODIUM / TOTAL BILIRUBIN / TOTAL PROTEIN / URIC ACID: tissue Plasma
[1] = 15 mg/kg, 120 h, dose level Low, time 5 day
[2] = 710 mg/kg, 72 h, dose level High, time 3 day
[3] = 710 mg/kg, 120 h, dose level High, time 5 day

## CN1C(=O)CN=C(c2ccccc2)c2cc(Cl)ccc21 [DIAZEPAM]
[1]
  ABSOLUTE BASOPHIL: 0 CELLS/uL
  ABSOLUTE EOSINOPHIL: 72 CELLS/uL
  ABSOLUTE LYMPHOCYTE: 10533.67 CELLS/uL
  ABSOLUTE MONOCYTE: 40.33 CELLS/uL
  ABSOLUTE SEGMENTED NEUTROPHIL: 587.33 CELLS/uL
  BASOPHIL: 0%
  EOSINOPHIL: 0.67%
  ERYTHROCYTE COUNT: 5.7 x10E6/uL
  HEMATOCRIT: 36.2%
  HEMOGLOBIN: 14.23 G/DL
  LEUKOCYTE COUNT: 11.23 x10E3/uL
  LYMPHOCYTE: 93.67%
  MEAN CORPUSCULAR HEMOGLOBIN: 25.07 pg
  MEAN CORPUSCULAR HEMOGLOBIN CONCENTRATION: 39.37 G/DL
  MEAN CORPUSCULAR VOLUME: 63.67 fL
  MONOCYTE: 0.33%
  NEUTROPHIL: 5.33%
  NUCLEATED RED BLOOD CELLS: 0 /100WBC
  PLATELET COUNT: 1134.33 x10E3/uL
  ALANINE AMINOTRANSFERASE: 51.33 u/L
  ALBUMIN: 4.17 G/DL
  ALKALINE PHOSPHATASE: 404.33 u/L
  ASPARTATE AMINOTRANSFERASE: 80.33 u/L
  BLOOD UREA NITROGEN: 16.33 mg/dL
  CARBON DIOXIDE: 27.67 mmol/L
  CHLORIDE: 101.67 MEQ/L
  CHOLESTEROL: 58.67 mg/dL
  CREATINE PHOSPHOKINASE: 231 u/L
  CREATININE: 0.18 mg/dL
  GLUCOSE: 147.67 mg/dL
  LACTATE DEHYDROGENASE: 117.67 u/L
  LIPASE: 9 u/L
  PHOSPHORUS: 12.13 mg/dL
  POTASSIUM: 7.09 MEQ/L
  SODIUM: 143.97 MEQ/L
  TOTAL BILIRUBIN: 0.23 mg/dL
  TOTAL PROTEIN: 5.93 G/DL
  URIC ACID: 1.43 mg/dL
[2]
  ABSOLUTE BASOPHIL: 0 CELLS/uL
  ABSOLUTE EOSINOPHIL: 125.67 CELLS/uL
  ABSOLUTE LYMPHOCYTE: 9703.33 CELLS/uL
  ABSOLUTE MONOCYTE: 42.33 CELLS/uL
  ABSOLUTE SEGMENTED NEUTROPHIL: 1128.67 CELLS/uL
  BASOPHIL: 0%
  EOSINOPHIL: 1%
  ERYTHROCYTE COUNT: 5.78 x10E6/uL
  HEMATOCRIT: 35.37%
  HEMOGLOBIN: 13.83 G/DL
  LEUKOCYTE COUNT: 11 x10E3/uL
  LYMPHOCYTE: 88.33%
  MEAN CORPUSCULAR HEMOGLOBIN: 23.93 pg
  MEAN CORPUSCULAR HEMOGLOBIN CONCENTRATION: 39.1 G/DL
  MEAN CORPUSCULAR VOLUME: 61.17 fL
  MONOCYTE: 0.33%
  NEUTROPHIL: 10.33%
  NUCLEATED RED BLOOD CELLS: 0 /100WBC
  PLATELET COUNT: 1330.67 x10E3/uL
  ALANINE AMINOTRANSFERASE: 69.67 u/L
  ALBUMIN: 4.07 G/DL
  ALKALINE PHOSPHATASE: 240 u/L
  ASPARTATE AMINOTRANSFERASE: 86.67 u/L
  BLOOD UREA NITROGEN: 14 mg/dL
  CARBON DIOXIDE: 33.33 mmol/L
  CHLORIDE: 101.33 MEQ/L
  CHOLESTEROL: 106.33 mg/dL
  CREATINE PHOSPHOKINASE: 222 u/L
  CREATININE: 0.21 mg/dL
  GLUCOSE: 159 mg/dL
  LACTATE DEHYDROGENASE: 204.67 u/L
  LIPASE: 10.67 u/L
  PHOSPHORUS: 12.7 mg/dL
  POTASSIUM: 6.45 MEQ/L
  SODIUM: 143.1 MEQ/L
  TOTAL BILIRUBIN: 0.2 mg/dL
  TOTAL PROTEIN: 5.53 G/DL
  URIC ACID: 1.27 mg/dL
[3]
  ABSOLUTE BASOPHIL: 0 CELLS/uL
  ABSOLUTE EOSINOPHIL: 31.67 CELLS/uL
  ABSOLUTE LYMPHOCYTE: 10193.33 CELLS/uL
  ABSOLUTE MONOCYTE: 269 CELLS/uL
  ABSOLUTE SEGMENTED NEUTROPHIL: 1672.67 CELLS/uL
  BASOPHIL: 0%
  EOSINOPHIL: 0.33%
  ERYTHROCYTE COUNT: 5.59 x10E6/uL
  HEMATOCRIT: 34.87%
  HEMOGLOBIN: 13.8 G/DL
  LEUKOCYTE COUNT: 12.17 x10E3/uL
  LYMPHOCYTE: 84%
  MEAN CORPUSCULAR HEMOGLOBIN: 24.77 pg
  MEAN CORPUSCULAR HEMOGLOBIN CONCENTRATION: 39.6 G/DL
  MEAN CORPUSCULAR VOLUME: 62.47 fL
  MONOCYTE: 2.33%
  NEUTROPHIL: 13.33%
  NUCLEATED RED BLOOD CELLS: 0 /100WBC
  PLATELET COUNT: 1299.67 x10E3/uL
  ALANINE AMINOTRANSFERASE: 81.67 u/L
  ALBUMIN: 3.93 G/DL
  ALKALINE PHOSPHATASE: 319.33 u/L
  ASPARTATE AMINOTRANSFERASE: 104.67 u/L
  BLOOD UREA NITROGEN: 13.67 mg/dL
  CARBON DIOXIDE: 25.33 mmol/L
  CHLORIDE: 101 MEQ/L
  CHOLESTEROL: 119.67 mg/dL
  CREATINE PHOSPHOKINASE: 535.33 u/L
  CREATININE: 0.16 mg/dL
  GLUCOSE: 133.33 mg/dL
  LACTATE DEHYDROGENASE: 507 u/L
  LIPASE: 11.33 u/L
  PHOSPHORUS: 11.5 mg/dL
  POTASSIUM: 5.38 MEQ/L
  SODIUM: 142.53 MEQ/L
  TOTAL BILIRUBIN: 0.13 mg/dL
  TOTAL PROTEIN: 5.7 G/DL
  URIC ACID: 1.23 mg/dL
